# From PMC5309220, “Screening for Small Molecule Inhibitors of Statin-Induced APP C-terminal Toxic Fragment Production” (Frontiers in Pharmacology, 2017)
# “Also recorded” adds a separate entry of the source. Structures can show the parent of a compound that is named as a salt.
# Assays:
# [1] = tested on: cerivastatin-induced APPΔC31 in CHO-7W cells; assay: APPΔC31 AlphaLISA dose-response, cerivastatin-induced; assay type: cell-based, Chinese hamster; details: 24 h
# Method: The APPΔC31 AlphaLISA assay (Figures 2C–E) was run directly in the plate with the cell lysate as described above in “AlphaLISA to detect APPΔC31.” APPΔC31 levels were measured using the Envision plate reader and data were normalized to DMSO (100% APPΔC31 production) and Q-VD-OPh (MP Biomedicals) pan-caspase inhibitor at 30 μM (0%); these controls were present on each plate. In addition, some compounds of interest were further analyzed in a dose-response curve to determine IC50 values.
# The broad-spectrum pan-caspase inhibitor Q-VD-OPh served as the positive control.
# Lysates were prepared and APPΔC31 determined by ELISA. (B) CHO-7W cells were treated with 10 μM cerivastatin plus increasing doses of caspase and MEK inhibitors for 24 h. Lysates were prepared and APPΔC31 determined by AlphaLISA. Click here for additional data file.
# [2] = tested on: cerivastatin-induced APPΔC31 production in CHO-7W cells; assay: APPΔC31 ELISA validation assay, cerivastatin-induced; assay type: cell-based, Chinese hamster; details: CHO-7W cells, 10 μM cerivastatin, 24 h; test concentration not given
# Method: The APPΔC31 ELISA developed in partnership with Enzo Life Sciences (ADI-900-227) follows a standard sandwich ELISA design wherein a monoclonal N-terminal APP-specific antibody is used to coat the wells of the microtiter plate (capture antibody) and the anti-APPΔC31 cleavage site-specific polyclonal antibody serves as the detection antibody. An HRP-conjugated secondary antibody is then added and a colorimetric signal generated by enzymatic conversion of the tetramethylbenzidine (TMB) substrate. Protein levels were first determined using a colorimetric coomassie assay (Coomassie Plus, Thermo).
# A subset of hits from our HTS was validated in a secondary assay. […] Thapsigargin also acts as a sarco/endoplasmic reticulum calcium ATPase (SERCA) inhibitor. Therefore, another SERCA inhibitor, 2,5-Di-tert-butylhydroquinone, was also added to the testing. In this secondary assay, CHO-7W cells were cultured as described above and plated into 24-well dishes at ∼200K/well. […] These hits were selected for their potency in primary screen, their structural features, their known activities, and availability of compound for additional testing. There were cerivastatin-only (negative control), + QVD-OPh (positive control), and for viability, vehicle-only (negative) controls. Cells were harvested by removing the media to a tube, adding […] trypsin to detach cells then neutralizing with media. […] Cells were centrifuged at 5000 rpm (2300 × g) for 5 min. Cell pellets were frozen until use. Forty μL cold RIPA buffer plus complete protease inhibitors (Roche) was added to each pellet and the pellets were reconstituted by pipetting up and down, incubating on ice for 30 min, vortexing, and centrifugation as above. Cell lysate supernatants were then assayed by APPΔC31 ELISA as described above. For most compounds, multiple/repeat studies were performed and two wells used for each condition. Statistical comparison was performed using one-way ANOVA for multiple comparisons, with a Dunnett post hoc test to compare each condition to the control. Further dose-response studies were performed on select compounds.
# [3] = tested on: cerivastatin-induced APPΔC31 in CHO-7W cells; assay: APPΔC31 immunoblot of CHO-7W cell lysates; assay type: cell-based, Chinese hamster; details: compound at 30 μM, 10 μM cerivastatin, 24 h
# Method: For immunoprecipitation, approximately 300 μg cell lysate supernatants were brought to 250 μL with cold RIPA + PI buffer in microfuge tubes. One μL of 6E10 APP antibody (Covance) was added and the mixture was rotated overnight in a cold room. The next day, 25 μL of protein A/G beads (Santa Cruz Biotech) were added and the samples were rotated for 1.5 h in the cold room. The beads were then centrifuged down and washed four times with cold PBS. Forty μL 1x LDS sample buffer + DTT was added to the pellets, which were heated to 70°C for 10 min, vortexed and centrifuged. Supernatants were loaded onto Nupage 4–12% Bis-Tris gels (Life Technologies) for electrophoresis and were then transferred to 0.2 μm PVDF membrane for immunoblotting with the anti-APPΔC31 antibody.
# (A) CHO-7W cells were treated with 10 μM cerivastatin (CS) along with varying concentrations of Q-VD-OPh (QVD) for 24 h. Cell lysates were prepared and immunoprecipitated with anti-APP (6E10) overnight at 4°C and then incubation with Protein A/G beads (Santa Cruz Biotech). The resulting pellets were incubated, electrophoresed using Nupage 4–12% Bis-Tris gels (Life Technologies) and the 0.2 μm PVDF membrane probed with anti-APPΔC31. (B) CHO-7W cells were treated with increasing concentrations of CS or 10 μM CS together with increasing concentrations of 3′-fluorobenzylspiperone maleate (3′-F-Sp) or 30 μM QVD for 24 h. […]
# sAPPα in CHO-7W cultures = assay: sAPPα ELISA in cell media; assay type: cell-based, Chinese hamster; details: QVD, Sp, 3′F-Sp at 10, 30, and 30 mM, respectively (so in the source), with 10 μM cerivastatin, 24 h, vs CS alone, n = 2
# Method: (§1) In an additional study (Supplementary Figure S5A), measurement of the α secretase fragment of full length (FL) APP – soluble APP alpha (sAPPα) – was performed using cell media by ELISA (IBL). Furthermore, in two studies (Supplementary Figures S5B,C), total protein levels in CHO-7W cell lysates were determined by Coomassie Plus protein assay (Pierce).
# (§2) Supplementary file Data_Sheet_1.docx: FIGURE S5 Effect of lead compounds on protein concentration and sAPPα. […] (B) Total protein from lysates of CHO-7W cells treated with either 30 μM QVD or 10 μM Sp alone for 24 h was similar to the vehicle control (n = 1). (C) Total protein from CHO-7W lysates treated with 10 μM CS alone or in combination with QVD, Sp, or 3′F-Sp at the concentrations shown increased (n = 1). Statistical analysis was performed using one-way ANOVA and Dunnett post-test for comparison to the 10 μM CS control (^∗∗p < 0.001, ^∗∗∗p < 0.0001). Click here for additional data file.
# CHO-7W cells = assay: Total protein in CHO-7W cell lysates (Coomassie Plus); assay type: cell-based, Chinese hamster; details: QVD, spiperone, 3′fluorobenzylspiperone at 30, 10, and 10 μM, respectively, with 10 μM cerivastatin, n = 1
# Method: as §1, §2
# [4] = PAMPA / immobilized artificial membrane (IAM.PC.DD2) chromatography; assay type: in vitro ADME
# Source text: Immobilized artificial membrane (IAM) chromatography such as PAMPA (parallel artificial membrane permeability assay) is used to predict a compound’s passive diffusion through membranes and may predict blood-brain barrier (BBB) penetrance.
# To minimize variability between PAMPA assays for different compounds, the well-characterized, reliable IAM.PC.DD2 Regis Technologies analytical columns were used. In these 10 cm × 4.6 mm columns, the phospholipid is bonded on 10 μm, 300 Å, spherical aminopropyl silica and end capped with C10 and C3 amides.
# Columns were connected to an Agilent high performance liquid chromatography system. […] The mobile phase was a mixture of water and methanol and a gradient was used for the elution of the compounds. The detector was set at 250 and 280 nm. After a compound was eluted, the retention time and void volume times were obtained from the chromatogram.
# The IAM capacity factor (KIAM) was calculated using the equation: KIAM=tr−t0/t0 ; where tr is the
# retention time of a compounds and t0 is the void volume time of the column. […] To predict the likelihood a compound would be BBB penetrant, we used the correlation described by [Yoon et al. (2006)]:
# • (I) If KIAM/MW^4x10^10 > 0.85 the BBB penetration is predicted to be high • (II) If KIAM/MW^4x10^10 < 0.85 the BBB penetration is predicted to be low
# [5] = tested on: cerivastatin-induced APPΔC31 in I5 mouse hippocampal slice cultures; assay: Ex vivo organotypic hippocampal slice cultures, APPΔC31 ELISA; details: 72 h, read-out: inhibition of APPΔC31 production
# Source text: I5 mice originally purchased from Jackson labs (JAX B6.Cg-Tg(PDGFB-APP)5Lms/J) were bred and maintained in the Buck Institute vivarium facility, and used under the guidelines of an approved institutional IACUC protocol. P5–7 day mice were sacrificed using CO2 gas and cervical dislocation according to established IACUC protocols. Brains were removed, and under sterile conditions, hippocampi were dissected out on ice in Hybernate media + 1:400 Glutamax, 1:100 Pen/Strep and 1:50 B27 supplement (all Life Technologies). Hippocampi were laid parallel on a tissue chopper (McIlwain) in a small amount of media and sliced at 400 μm thick. Millicell-CM 6-well cell culture inserts (Millipore, 0.4 μm) were prehydrated by pipetting 750 μL culture media under each well and placing in a 35°C, 5% CO2 incubator for at least 30 min. Culture media: 100 mL MEM-HEPES, 50 mL HBSS, 50 mL HI horse serum, 1 mL 100x Pen/Strep (all Gibco), 1.3 g (6.5 mg/mL) glucose, and 2 mL 200 μM (2 mM) Glutamax, sterile filtered. […] Protein was quantitated for each sample using Coomassie Plus reagent (Thermo). […]
# Tissue was harvested and lysates analyzed for APPΔC31 by ELISA. Lysates were protein normalized and expressed as a % of control.
# [6] = tested on: APPΔC31 production in CHO-7W cells; assay: Statin induction of APPΔC31, ELISA; assay type: cell-based, Chinese hamster; details: 24 h, statins at 1, 5 and 10 μM
# Method: An HRP-conjugated secondary antibody is then added and a colorimetric signal generated by enzymatic conversion of the tetramethylbenzidine (TMB) substrate. Protein levels were first determined using a colorimetric coomassie assay (Coomassie Plus, Thermo).
# APPΔC31 was determined in cell lysates by ELISA.
# in vitro = details: Chinese hamster
Compound,"% Min (APPΔC31 dose-response) ([1]; AlphaLISA dose-response (Figure 5C), cerivastatin-stimulated)","IC50 ([1]; Cricetulus griseus, (A) AlphaLISA, cerivastatin-induced, read-out: IC50 (A), APPΔC31 inhibition)",APPΔC31 Inh. (mean %) [2],effect on CS-induced APPΔC31 by immunoblot (in words) [3],effect on sAPPα (in words) (sAPPα in CHO-7W cultures),effect on total protein concentration with cerivastatin (in words) (CHO-7W cells),"KIAM (IAM capacity factor) ([4]; IAM.PC.DD2 column, water/methanol gradient)","KIAM/MW^4 x 10^10 ([4]; IAM.PC.DD2 column, correlation of Yoon et al. (2006))","BBB Penetration Prediction ([4]; from KIAM/MW^4 x 10^10, cut-off 0.85)",inhibition at 30 µM [5],induction of APPΔC31 (in words) [6],"viability at 24 h, 10 µM (in vitro)"
"O=C(CCCN1CCC2(CC1)C(=O)N(Cc1cccc(F)c1)CN2c1ccccc1)c1ccc(F)cc1 [3′Fluorobenzylspiperone maleate, 3′-fluorobenzylspiperone maleate]",25%,2200 nM,78%,decreased,increased sAPPα,increased total protein concentration,3.2,0.50,low (If KIAM/MW^4x10^10 < 0.85 the BBB penetration is predicted to be low),~82%,,
COCc1c(C(C)C)nc(C(C)C)c(/C=C/[C@@H](O)C[C@@H](O)CC(=O)O)c1-c1ccc(F)cc1 [Cerivastatin],,,,,,,,,,,"most effective; also recorded: did so at 1, 5, and 10 μM",15%
